Data published in patent US7772210B2, “Cystitis treatment with high dose chondroitin sulfate” (Stellar Pharmaceuticals Inc., priority 2004, dated 2010).

How the values were obtained:
[1] = Solubility of CS in water; type: physicochemical; settings: room temperature, sterile, distilled water
Description: In accordance with the present invention, the unit dose of CS administered to the patient is at least 250 mgs. More desirably, the unit dose of CS is at least 300 mgs. Preferably, the unit dose is at least 350 mgs. More preferably, the unit dose is at least 400 mgs. The upper end of the acceptable unit dose is capped, in theory, only by the solubility of the given type of CS in the chosen aqueous vehicle, and by the volume of that vehicle used in therapy. At room temperature and in sterile, distilled water, the solubility of CS approaches 50%. Thus, the upper limit of the CS unit dose can be 500 mgs/mL of vehicle. In accordance with the present invention, the unit dose of CS is desirably formulated in a solution volume that is sufficient to expose the bladder surface to be treated, and is at least tolerable and more desirably comfortable for the patient. The upper limit for such volumes lies below the volume causing hydrodistention, which is about 250 mL in some patients. For adult patients, solution volumes are suitably from about 5 mL or 10 mL up to about 100 mL, e.g. up to about 75 mL, and preferably up to about 50 mL. In a specific embodiment of the invention, a solution volume of about 40 mL is utilized. Accordingly, the upper limit of the unit dose of CS administrable to the patient at this volume can approach 20,000 mgs.

[2] = system: patients diagnosed with cystitis; settings: 80 mgs and up to 200 mgs as a 40 mL instillation; cited from earlier work

- solubility [1]: about 50%
Substance: chondroitin sulfate [CS]
- relief of symptoms including frequency, pain and urgency [2]: provided relief from at least one symptom
